Here are results for 6 molecules from US11911464B2, “Anti-parasitic immunological compositions” (Prommune, Inc., priority 2018, dated 2024).

Non-standard residues stand in square brackets, D forms with d. No end group written: not given here. NMeL = CN[C@@H](CC(C)C)C(=O)O Bounds are passed on as bounds.

Assay [1] has as its system bone marrow-derived BALB/c DCs. In words: Murine dendritic cell activation (cytokine release) by EP67 vaccines. Format: cell-based, mouse. The following applies: 6 hr exposure. An excerpt:
A subset of vaccines were developed with murine DC's from BALB/c bone marrow, and examined for cytokine response. […] Bone marrow-derived BALB/c DCs were separately exposed to EP67-containing vaccines #1 (TgSAG1) and #2 (TgGRA1) (Example 3), and compared to sham exposure (media). […] KC/GRO, also known as CXCL1, is a potent neutrophil chemotactic cytokine. Increases in INF-gamma, IL-1b, and TNF-α were also observed, and are in-line with expectations of EP67 engagement of the C5a receptor and subsequent activation of dendritic cells.

The test system of assay [2] is DCs. Kind of assay: Surface activation markers of exposed dendritic cells by flow cytometry. Format: cell-based, mouse. The following applies: 6 hours exposure. As for the experimental part: […] vaccines were investigated and found to increase surface activation markers of exposed white blood cells, such as DCs shown in FIG. 10, which were exposed for 6 hours to Vaccines #1 (TgSAG1) and #2 (TgGRA1). Following exposure, cells were fixed and stained with antibodies to measure cell surface markers of intact cells by flow cytometry.

The test system of assay [3] is human monocytes and monocyte-derived dendritic cells. Kind of assay: Multiplex cytokine release from human monocytes and monocyte-derived dendritic cells (EP67 analogues). Particulars: 50 μg/ml, 6 and 24 hours. The assay is classed as cell-based. The source says: Cytokine Analysis. Considerable time was spent in learning the methods for the rapid, efficient, and high throughput method of cytokine analysis using a multiplex instrument for large panels of cytokines (MesoScale QuickPlex SQ 120). With this instrument, we tested the EP67- and analogue-mediated release of a pro-inflammatory and anti-inflammatory panel of cytokines (IL-1beta, IL-2, IL-4, IL-6, IL-10, IL-12p70, IL-13, IL-15, TNF-α, and IFN-gamma) from human monocytes and monocyte-derived dendritic cells over the course of 6 and 24 hours of exposure 50 μg/ml EP67, scrambled EP67 (scEP67), and EP67 analogues (EP144, EP146, and EP147).

For assay [4], the system named is bone marrow-derived mouse dendritic cells. In words: qPCR detection of cytokine expression following exposure to EP67. Format: cell-based. Particulars: EP67 50 μg/ml, 24 hrs, vs PBS controls, normalized to Actin B. As for the experimental part:
Free EP67 (unattached to any epitope) was used as a control to stimulate murine bone marrow-derived dendritic cells (See Table 1 below). […] Testing these and additional cytokines (at the gene and protein-expression levels) against all of the synthesized and control vaccines is carried out. Similarly, we will also be analyzing surface marker expression indicative of DC activation.
EP67 (50 μg/ml) was incubated with bone marrow-derived mouse dendritic cells (24 hrs) following in vitro maturation. Fold changes in expression were compared to PBS controls and normalized to Actin B gene expression. Three replicates were analyzed per gene. […] A positive control, bacterial LPS, was also evaluated and produced upregulation of at least 20-fold above PBS controls for all evaluated cytokines.
(In general: In qPCR the cycle at which signal appears reflects the starting amount.)

Assay [5] has as its system human monocytes. In words: Differentiation of human peripheral blood monocytes (morphology). Particulars: 50 μg/ml, 48 hrs. Format: cell-based. An excerpt:
EP67 Differentiates Human Peripheral Blood Monocytes to Cells with Phenotypes Characteristic of Macrophages/DCs.

The subject of assay [6] is human monocytes. Kind of assay: Surface marker immunophenotype of human monocytes incubated with EP67. Particulars: 50 μg/ml, over 7 days. Format: cell-based. As for the experimental part: EP67 Differentiates Human Peripheral Blood Monocytes to Cells with Immunophenotypes Characteristic of Macrophages/DCs. Human monocytes were incubated with EP67 (50 μg/ml) and surface markers analyzed over the course of 7 days.

The test system of assay [7] is human monocyte-derived macrophages and DCs. In words: Cytokine release from human macrophages and DCs. The assay is classed as cell-based. Particulars: 50 μg/ml, after 24 hours of incubation. As for the experimental part: Human monocyte-derived macrophages and DCs were incubated with EP67 (50 μg/ml) and scrambled EP67 (50 μg/ml) for 6 and 24 hours. Supernatants were collected and analyzed for the presence of the following cytokines: IL-1beta, IL-2, IL-4, IL-6, IL-10, IL-12p70, IL-13, IL-15, TNF-alpha, and IFN-gamma. […] It is worth noting that the prominent cytokines released at 6 and 24 hours in response to EP67 (IL-1beta, IL-2, IL-6, and TNF-alpha) represent a TH1/pro-inflammatory bias relative to the TH2/anti-inflammatory cytokines (IL-4, IL-5, IL-10, and IL-13). This TH1 bias is in keeping with earlier observations with EP67 and is an important immunologic component for an effective immune response to T. gondii.

Assay [8] has as its system murine splenocytes. In words: Cytokine release from murine splenocytes. Particulars: 50 μg/ml. The assay is classed as cell-based, mouse. As for the experimental part: Splencocytes were obtained from normal Balb/c mice (ca. 2 months) and aged (ca. 17 months) sentinel mice of undetermined background (a gift from the University of Nebraska Medical Center Animal Facility). Spelocytes were cultured in the presence of EP67 and scrambled EP67 (50 μg/ml) for 24 hours, supernatants harvested, and analyzed for the presence of IL-1beta, IL-2, IL-4, IL-5, IL-6, KC/GRO, IL-10, IL-12p70, TNF-alpha, and IFN-gamma. […] Splenocytes were not our original choice of APCs from mice to evaluate the effects of EP67/EP67-based vaccines, but they were chosen for this first assessment as a matter of convenience to help with getting our cell culture protocols and assays established and verified.

Assay [9] relates to RAW 264.7 cells. Kind of assay: TNF-alpha and IL-6 secretion from RAW 264.7 cells. Particulars: 6 hr and 24 hr exposures. The assay is classed as cell-based, mouse. As for the experimental part: Although murine work was achieved using commercially available BALB/c cells, we felt it useful to explore additional cell options for in vitro evaluation of EP67 vaccine candidates. […] FIGS. 13A and 13B show the results of RAW 264.7 cells activated by EP67. In order to evaluate a cell line that is responsive to both EP67 and C5a (the complement protein from which the sequence of EP67 is derived), RAW 264.7 were tested for secretion of TNF-a and IL-6. For both cytokines, supernatants from both 6 hr and 24 hr exposures of recombinant C5a were high.

Consider “SFKDILPKLSENPWQRRYSFKDMP(MeL)aR (SFKDILPKLSENPWQRRYSFKDMP[NMeL][dA]R; not fully specified; printed as SFKDILPKLSENPWQRRYSFKDMP(MeL)aR) [Vaccine 1]”, for which, in assay [1], the “INF-gamma, IL-1b, and TNF-α release” value is listed as “Increases”; the “cytokine release compared to sham (media)” value is “cytokine release above the controls”. Further, in assay [2], the “CD80, CCR7, and MHC Class II molecules compared to control (media only)” value is “Elevation occurred”.
YSFKDM(Cha)LaR [EP147]: the “cytokine release (pro- and anti-inflammatory panel)” value in assay [3] is “increase in cytokine release”.
With “YSFKDMP(MeL)aR (YSFKDMP[NMeL][dA]R; not fully specified; printed as YSFKDMP(MeL)aR) [EP67]”, in [4], the “Fold change CXCL1 (a.k.a. KC) expression” value is on record as 1.61 fold, the “Fold change IL-6 expression” value was found to be 3.40 fold, the “Fold change IL-10 expression” value was found to be 4.13 fold and the “Fold change TNF alpha expression” value came out at 2.14 fold. In assay [5], the “conversion of monocytes into elongated, adhered macrophage/DC-like cells” value is “converts rounded and non-adhered monocytes into elongated, adhered cells”. Besides, in assay [6], the “expression of CD14, CD16, CD11b, and CD33” value is given as “moderately enhanced”; the “expression of CD80 and CD206” value is “significantly enhanced”. Also, in assay [7], the “release of IL-1beta, IL-2, IL-6, IFN-gamma, and TNF-alpha” value is recorded as “induced the release”. Further, the “cytokine release relative to controls, aged sentinel mice splenocytes” value in assay [8] (aged ca. 17 months) is reported as “more pronounced effect”. For the same molecule, the “cytokine release relative to controls, Balb/c splenocytes” value in assay [8] (normal Balb/c mice ca. 2 months) is on record as “little effect”. Moreover, the “secretion of TNF-a and IL-6” value in [9] is recorded as “statistically significant (p<0.05) increases”.
With “EEVIDTMKSMQRDEERRYSFKDMP(MeL)aR (EEVIDTMKSMQRDEERRYSFKDMP[NMeL][dA]R; not fully specified; printed as EEVIDTMKSMQRDEERRYSFKDMP(MeL)aR) [Vaccine 2]”, in [1], the “INF-gamma, IL-1b, and TNF-α release” value was “Increases”; the “cytokine release compared to sham (media)” value is recorded as “cytokine release above the controls”. Further, in assay [2], the “CD80, CCR7, and MHC Class II molecules compared to control (media only)” value was “Elevation occurred”; the “CD80 increase compared to control (media only)” value is on record as more than 80%.
As for “(MeL)RMYKPaFDS ([NMeL]RMYKP[dA]FDS) [scrmbEP67, reference compound]”, the “conversion of monocytes into elongated, adhered macrophage/DC-like cells” value in assay [5] is on record as “not”. For the same molecule, the “release of IL-1beta, IL-2, IL-6, IFN-gamma, and TNF-alpha” value in assay [7] is “not”.

B1: recombinant C5a: the complement protein from which the sequence of EP67 is derived (protein, UniProt P01031 678-751, looked up)
C5a anaphylatoxin: TLQKKIEEIAAKYKHSVVKKCCYDGACVNNDETCEQRAARISLGPRCIKAFTECCVVASQLRANISHKDMQLGR
modifications: C5a anaphylatoxin
On to B1, for which the “secretion of TNF-a and IL-6” value in assay [9] is on record as “high”.
